# Measurements from ChEMBL document CHEMBL3085760, “Novel polyamine analogues: from substrates towards potential inhibitors of monoamine oxidases” (Eur J Med Chem, 2013).
# The source made the active and inactive calls. The calls are words filed in the database; no cut-off is given here.
# Legend:
# [1] = molecular target: T1, Amine oxidase [copper-containing] 3 (Homo sapiens) (UniProt Q16853); assay: Ratio of relative Vmax to Km for recombinant human VAP-1 assessed as hydrogen peroxide generation rate preincubated for 30 mins by Amplex Red assay relative to control
# T1 sequence (whole entry): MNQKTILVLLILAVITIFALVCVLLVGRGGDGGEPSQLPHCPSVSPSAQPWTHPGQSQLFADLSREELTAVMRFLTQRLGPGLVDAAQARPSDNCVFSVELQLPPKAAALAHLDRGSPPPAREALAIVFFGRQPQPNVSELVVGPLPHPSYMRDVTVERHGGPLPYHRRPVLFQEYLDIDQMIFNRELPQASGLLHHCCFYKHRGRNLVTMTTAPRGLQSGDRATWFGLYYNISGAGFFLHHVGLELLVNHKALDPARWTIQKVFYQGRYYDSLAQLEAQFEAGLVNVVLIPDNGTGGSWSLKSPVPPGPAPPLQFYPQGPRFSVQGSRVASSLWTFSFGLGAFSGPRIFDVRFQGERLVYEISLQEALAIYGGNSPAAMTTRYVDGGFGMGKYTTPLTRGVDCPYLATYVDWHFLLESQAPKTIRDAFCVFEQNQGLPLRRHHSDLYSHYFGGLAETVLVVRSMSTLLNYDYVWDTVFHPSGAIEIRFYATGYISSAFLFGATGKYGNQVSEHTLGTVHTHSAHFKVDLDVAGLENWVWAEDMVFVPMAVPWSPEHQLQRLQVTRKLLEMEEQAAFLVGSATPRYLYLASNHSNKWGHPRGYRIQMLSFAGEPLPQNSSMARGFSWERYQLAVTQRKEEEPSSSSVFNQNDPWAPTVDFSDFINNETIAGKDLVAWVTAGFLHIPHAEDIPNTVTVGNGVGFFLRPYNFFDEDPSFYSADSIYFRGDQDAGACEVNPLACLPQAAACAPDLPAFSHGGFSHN
# [2] = molecular target: T1, Amine oxidase [copper-containing] 3 (Homo sapiens); assay: Activity at recombinant human VAP-1 assessed as hydrogen peroxide generation rate per min/mg preincubated for 30 mins by Amplex Red assay relative to control
# [3] = molecular target: T1, Amine oxidase [copper-containing] 3 (Homo sapiens); assay: Activity at recombinant human VAP-1 assessed as hydrogen peroxide generation rate per min/mg using benzylamine as substrate at 200 uM preincubated for 30 mins by Amplex Red assay relative to control
# [4] = molecular target: T1, Amine oxidase [copper-containing] 3 (Homo sapiens); assay: Ratio of relative Vmax to Km for recombinant human VAP-1 assessed as hydrogen peroxide generation rate using benzylamine as substrate at 200 uM preincubated for 30 mins by Amplex Red assay
# [5] = molecular target: T1, Amine oxidase [copper-containing] 3 (Homo sapiens); assay: Activity at recombinant human VAP-1 assessed as hydrogen peroxide generation rate preincubated for 30 mins by Amplex Red assay
# Homo sapiens [6] = species on record: Homo sapiens; assay: Selectivity ratio of Ki for recombinant human MAO-B to Ki for recombinant human MAO-A
# Homo sapiens [7] = species on record: Homo sapiens; assay: Selectivity ratio of Ki for recombinant human MAO-A to Ki for recombinant human MAO-B
fold change (FC) [1],fold change (FC) [2],fold change (FC) [3],fold change (FC) [4],Activity [5],Ratio Ki (Homo sapiens [6]),Ratio Ki (Homo sapiens [7]),SMILES
0.09,0.38,–,–,–,–,–,NCCCCCCCCNCCCNCc1cccs1
–,–,0.69,0.66,–,1.8,–,CN(CCCCCCCCCCCCN=C=S)Cc1ccccc1
–,–,0.77,0.66,–,1.7,–,NCCCNCCCCNCCCNCc1ccccc1
30,0.73,–,–,–,–,–,CN(CCCCCCCCCCCCN)Cc1ccccc1
35,1.77,–,–,–,–,–,NCCCCCCCCCCCCNCc1cccs1
80,1.88,–,–,–,–,–,NCCCCCCCCCCCCNCc1ccccc1
–,–,0.89,0.35,–,–,–,c1ccc(CNCCCCCCCCCCCCNCc2ccccc2)cc1

# Continued, molecule first:
SMILES,fold change (FC) [1],fold change (FC) [2],fold change (FC) [3],fold change (FC) [4],Activity [5],Ratio Ki (Homo sapiens [6]),Ratio Ki (Homo sapiens [7])
NCCCNCCCCNCCCNCc1cccnc1,–,–,0.85,0.69,inactive,–,–
NCCCOCCCCOCCCNCc1cccs1,0.87,0.71,–,–,–,–,–
NCCCNCCCCNCCCNCc1cccs1,–,–,1,0.6,inactive,–,9.8
NCCCNCCCCNCCCN,–,–,1,0.96,–,–,–
NCCCNCCCCNCCCNCc1ccc2ccccc2c1,–,–,1.12,0.97,inactive,–,–
